Measured values as given in patent publication US20110293745A1, “AURORA KINASE INHIBITORS” (SUNESIS PHARMACEUTICALS, INC., priority 2008, published 2011).

How the values were obtained:
panel of 219 kinases = conditions: read-out: IC50 of the remaining 197 kinases
DDR2 = molecular target: T1, DDR2 (Homo sapiens, UniProt Q16832); assay: Radiometric kinase assay (Upstate panel); assay type: biochemical
T1 construct: purchased Upstate Biotechnology, Dundee, UK

pHH3 in A2780 = assay: cells; conditions: Homo sapiens, A2780, 1 h, read-out: pHH3 IC50
Protocol: (§1) For analysis of pHH3 on adherent cells (HCT116, A375, and H1299), tumor cells were grown in 96-well tissue culture plates overnight at 37° C. […] Cells were fixed, permeabilized and exposed to anti-pHH3 antibody and analyzed for pHH3 staining. Data were fit to an IC50 equation. For analysis of pHH3 on nonadherent cells or cells with irregular morphology (A2780, Calu-6, and HT-29), tumor cells were seeded in 6-well tissue culture plates overnight at 37° C. […] Cells were trypsinized, collected, lysed, and analyzed by immunoblotting.

pHH3 in H1299 = assay: cells; conditions: Homo sapiens, NCI-H1299, 1 h, read-out: pHH3 IC50
Protocol: as §1

pHH3 in A375 = assay: cells; conditions: Homo sapiens, A-375, 1 h, read-out: pHH3 IC50
Protocol: as §1

pHH3 in Calu-6 = assay: cells; conditions: Homo sapiens, Calu-6, 1 h, read-out: pHH3 IC50
Protocol: as §1

MiaPaca2 = assay: Cell Proliferation ELISA, BrdU; assay type: cell-based; conditions: Homo sapiens, MIA PaCa-2; MiaPaca2 (Pancreatic), 96 hr
Protocol: Cellular proliferation was assessed using the Cell Proliferation ELISA, bromodeoxyuridine (BrdU) kit (Roche) including reagents, according to the kit protocol.

[1] = system: H1299 non-small cell lung cancer xenograft; assay: In vivo efficacy, mouse xenograft; conditions: H1299 (NSCLC)
Protocol: (§2) Percent TGI is then calculated with the following equation: […]
(§3) Time To Endpoint (TTE) was calculated for each individual animal to reach the predetermined study end point where the tumor volume becomes 1200 mm^3 or 10% of body weight or a greater than 20% body weight loss for two sequential measurements. The TTE is calculated and the median value is recorded for the group. Tumor Growth Delay (TGD) is then calculated with the following equation: […]
H1299 non-small cell lung cancer cells [200 μL of a 5×10^7 cells/mL suspension (1:1 DPBS with cells:Matrigel)] were implanted subcutaneously in the right hind flank. After 10 days, when tumors reached an average volume of approximately 100 mm^3, animals were weighed, randomized by tumor volume (l×w×h×0.52), and assigned to the various study groups before initial dosing.

[2] = system: MDA-MB-231 breast cancer xenograft; assay: In vivo efficacy, mouse xenograft
Protocol: as §2, §3
MDA-MB-231 breast cancer cells [200 μL of a 2.5×10^7 cells/mL suspension (1:1 DPBS with cells:Matrigel)] were implanted subcutaneously in the right hind flank of mice. After 13 days, when tumors reached n average volume of approximately 95 mm^3, animals were weighed, randomized by tumor volume (l×w×h×0.52), and assigned to the various study groups before initial dosing.

[3] = system: Calu 6 lung carcinoma xenograft; assay: In vivo efficacy, mouse xenograft; conditions: CALU6 (NSCLC)
Protocol: as §2, §3
Calu 6 lung carcinoma cells [200 μL of a 5×10^7 cells/ml suspension (1:1 DPBS with cells:Matrigel)] were implanted subcutaneously in the right hind flank of mice. After 11 days, when tumors reached an average volume of approximately 150 mm^3, animals were weighed, randomized by tumor volume (l×w×h×0.52), and assigned to the various study groups before initial dosing.

[4] = Mass balance, elimination, autoradiography and metabolites with 14C-label; assay type: in vivo; conditions: IV bolus 50 mg/kg, male rats, whole-body autoradiography
[5] = Pharmacokinetics, single bolus intravenous injection; assay type: in vivo, CD-1 mice; conditions: CD-1, mouse, plasma, 5 mg/kg
Source text: Pharmacokinetic parameters were estimated using noncompartmental analysis within WinNonlin v. 4.1. Quantification of Compound 2 was done by HPLC-MS/MS after extraction from plasma with acetonitrile. […] For rising dose experiments measuring exposure for each species, sets containing several animals were singly dosed at a given dose. Results from single-dose experiments are shown in FIG. 10A, Table 43, and in FIG. 10B and Table 44, respectively. […] C0 is initial concentration extrapolated to time zero. AUCINF is area under the plasma-concentration time curve from time zero extrapolated to the infinite time. CL is clearance; Vss is steady state volume of distribution. T1/2 is half-life.

T1 sequence (Q16832 22-855): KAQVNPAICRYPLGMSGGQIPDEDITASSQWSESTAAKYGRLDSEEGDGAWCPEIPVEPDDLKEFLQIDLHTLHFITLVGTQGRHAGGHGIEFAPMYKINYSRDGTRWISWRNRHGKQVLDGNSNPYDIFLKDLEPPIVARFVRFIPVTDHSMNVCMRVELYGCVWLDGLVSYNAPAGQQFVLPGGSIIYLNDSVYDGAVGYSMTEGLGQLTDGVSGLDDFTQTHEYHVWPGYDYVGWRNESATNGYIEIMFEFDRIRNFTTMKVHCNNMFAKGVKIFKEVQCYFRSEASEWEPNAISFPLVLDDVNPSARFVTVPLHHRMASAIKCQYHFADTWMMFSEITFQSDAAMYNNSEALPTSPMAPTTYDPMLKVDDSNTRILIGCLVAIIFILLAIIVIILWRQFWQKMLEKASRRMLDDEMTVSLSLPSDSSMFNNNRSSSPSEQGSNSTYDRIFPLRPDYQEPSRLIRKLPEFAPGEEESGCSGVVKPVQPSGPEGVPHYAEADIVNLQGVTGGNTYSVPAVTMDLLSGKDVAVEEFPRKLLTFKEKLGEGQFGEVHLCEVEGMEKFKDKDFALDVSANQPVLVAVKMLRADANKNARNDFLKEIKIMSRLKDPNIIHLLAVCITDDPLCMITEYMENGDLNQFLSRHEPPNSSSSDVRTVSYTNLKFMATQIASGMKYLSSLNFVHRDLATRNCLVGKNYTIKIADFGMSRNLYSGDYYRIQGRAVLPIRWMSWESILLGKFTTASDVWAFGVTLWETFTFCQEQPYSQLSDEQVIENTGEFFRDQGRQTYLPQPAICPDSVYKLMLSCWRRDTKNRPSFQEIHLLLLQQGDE

**Q.** Which IC50 (panel of 219 kinases) does the source give for `CS(=O)(=O)O.O=C(Nc1cccc(Cl)c1)Nc1ncc(CCNc2ncnc3ccsc23)s1` [Compound 1, 1-(3-chlorophenyl)-3-{5-[2-(thieno[3,2-d]pyrimidin-4-ylamino)ethyl]thiazo}-urea] here?
**A.** ≥ 1000 nM

**Q.** And the IC50 (DDR2)?
**A.** 0.082 µM

**Q.** And the IC50 (pHH3 in A2780)?
**A.** 150 nM

**Q.** What about the IC50 (pHH3 in H1299) of the same compound?
**A.** 58 nM

**Q.** What about the IC50 (pHH3 in A375) of the same compound?
**A.** 15 nM

**Q.** What about the IC50 (pHH3 in Calu-6) of the same compound?
**A.** 60 nM

**Q.** What about the IC50 (MiaPaca2) of the same compound?
**A.** 9.1 nM

**Q.** What about the “% TGI” value ([1]; 42.5 mg/kg biw × 3) of the same compound?
**A.** 0%

**Q.** What about the TGD ([1]; 42.5 mg/kg biw × 3) of the same compound?
**A.** 0 days

**Q.** And the “% TGI” value ([1]; 85 mg/kg biw × 3)?
**A.** 17.7%

**Q.** And the TGD ([1]; 85 mg/kg biw × 3)?
**A.** 0 days

**Q.** What about the “% TGI” value ([1]; 170 mg/kg biw × 3) of the same compound?
**A.** 69.1%

**Q.** What about the TGD ([1]; 170 mg/kg biw × 3) of the same compound?
**A.** 5.7 days

**Q.** And the “% TGI” value ([2]; 42.5 mg/kg biw × 3)?
**A.** 20.6%

**Q.** And the TGD ([2]; 42.5 mg/kg biw × 3)?
**A.** 3.5 days

**Q.** What about the “% TGI” value ([2]; 85 mg/kg biw × 3) of the same compound?
**A.** 19.2%

**Q.** What about the TGD ([2]; 85 mg/kg biw × 3) of the same compound?
**A.** 4.0 days

**Q.** And the “% TGI” value ([2]; 170 mg/kg biw × 3)?
**A.** 73.8%

**Q.** What about the TGD ([2]; 170 mg/kg biw × 3) of the same compound?
**A.** 14.1 days

**Q.** What about the “% TGI” value ([3]; 42.5 mg/kg biw × 3) of the same compound?
**A.** 23.5%

**Q.** What about the “% TGI” value ([3]; 85 mg/kg biw × 3) of the same compound?
**A.** 28.7%

**Q.** What about the “% TGI” value ([3]; 170 mg/kg biw × 3) of the same compound?
**A.** 91.4%

**Q.** Which “time of maximum tissue concentrations of radioactivity” value [4] does the source give for `O=C(Nc1cccc(Cl)c1)Nc1ncc(CCNc2ncnc3ccsc23)s1` [Compound 2, 1-(3-chlorophenyl)-3-{5-[2-(thieno[3,2-d]pyrimidin-4-ylamino)ethyl]thiazol-2-yl}-urea] here?
**A.** 1 h

**Q.** And the AUC(0-inf) [5]?
**A.** 1800 ng·h/mL

**Q.** And the C0 [5]?
**A.** 7100 ng/mL

**Q.** What about the clearance [5] of the same compound?
**A.** 47.6 mL/min/kg

**Q.** What about the half-life [5] of the same compound?
**A.** 1.4 h

**Q.** What about the Vd ([5]; read-out: Vss) of the same compound?
**A.** 1 L/kg
